Source: publication PMC9921564, “Novel Indole-Containing Hybrids Derived from Millepachine: Synthesis, Biological Evaluation and Antitumor Mechanism Study” (Molecules, 2023)

Legend:
[1] = target: tubulin (colchicine binding site) (Sus scrofa, UniProt P02554); test: colchicine competitive inhibition (binding) assay
Experimental: Tubulin–microtubule homeostasis is crucial for cell mitosis.
Figure 2 Effect of compound 14b on tubulin. […] The experiments were performed at least three times, and representative images are shown. Scale bars are 10 μm. […] The backbone of tubulin is shown in ribbon representation (α-tubulin, yellow; β-tubulin, green). […] The data were shown as mean ± SE (standard error) of at least three independent experiments.

[2] = system: five kinds of human cancer cell lines (A549, Caski, HepG2, C42B, MCF-7); test: CCK-8 assay, panel of five human cancer cell lines; assay type: cell-based; conditions: 48 h, read-out: IC50 values, range over five human cancer cell lines
[3] = system: caspase 3; test: caspase 3 activity evaluation; assay type: cell-based, human; conditions: A549, 10, 20 and 50 nM
Experimental: To further elucidate the mechanism of cell death caused by the cytotoxicity of compound 14b, the Hoechst 33342 fluorochrome was used to observe the nucleus morphology, Annexin V-FITC double staining was performed to distinguish the apoptotic cells, and the caspase 3 colorimetric assay kit was used to detect the activity of caspase 3. […] At the early stage of apoptosis, different types of cells turn phosphatidylserine (PS) out toward the cell surface, that is, the outside of the cell membrane, which can be selectively marked with Annexin V. Additionally, in the late stage of apoptosis, the integrity of cell membrane is lost and can be stained with PI. […] Finally, considering the activation of caspase 3 is a central event in the process of apoptosis, the activity of caspase 3 was also evaluated.
Figure 4 Induction of apoptosis by compound 14b. […] (B) The percentages of cells in each apoptosis quantitated by flow cytometry through Annexin V-FITC double staining analysis. […] (C) The caspase 3 activity detected by the caspase 3 colorimetric assay kit after A549 cells were treated with compound 14b at concentrations of 10, 20 and 50 nM for 24 h. […]
samples were fixed in ice-cold 70% ethanol overnight and removed with ice-cold PBS for three times. […] After the incubation, the prepared cell samples were immediately analyzed. […]

[4] = system: A549 cells; test: intracellular ROS detection by DCFH-DA; assay type: cell-based, human; conditions: A549, 10, 20 and 50 nM, 12 h
From the text: The intrinsic mitochondrial pathway is one of the most well-studied mechanisms relevant to cell apoptosis. ROS accumulation and mitochondrial membrane potential (MMP) alteration play crucial roles in this pathway. In this study, a fluorescent dye including DCFH-DA and JC-1 was used to monitor the intracellular ROS and MMP, respectively.
Figure 5 ROS accumulation and MMP alteration induced by compound 14b. (A,B) The intracellular ROS detection by DCFH-DA after A549 cells treated with compound 14b at indicated concentrations for 12 h. (C,D) The detection of MMP monitored by JC-1 dye after A549 cells treated with compound 14b at the concentrations of 10, 20 and 50 nM for 12 h. […]
samples were fixed in ice-cold 70% ethanol overnight and removed with ice-cold PBS for three times. […] After the incubation, the prepared cell samples were immediately analyzed. Almost 10,000 events were detected by flow cytometry (Beckman Coulter, CytoFlex LX). The data regarding the number of cells in different phases of the cell cycle were or apoptotic cells were analyzed by […]
Caspase-3 activity was measured according to the manufacturer ’s instructions using a GreenNuc™ Caspase-3 assay kit for live cells (Beyotime, China). […] After incubation, the fluorescence intensity (excitation wavelength:
485 nm, emission wavelength: 515 nm) was recorded using a multifunctional microplate reader (Thermo Scientific, Varioskan LUX). […]

SMILES: COc1ccc(C(=O)c2ccc3c(ccn3C)c2)c2c1C=CC(C)(C)O2 [compound 14b, (5-methoxy-2,2-dimethyl-2H-chromen-8-yl)(1-methyl-1H-indol-5-yl)methanone]
- IC50 [1]: 1040 ± 20 nM
- IC50 [2]: 22 to 74 nM
- activity of caspase 3 [3]: significantly activated and increased in a dose- and time-dependent manner
- level of ROS [4]: significantly rose abruptly in a dose-dependent manner
